In patent US20230330059A1, “3-PHENYL-2H-CHROMENE DERIVATIVE AND PHARMACEUTICAL COMPOSITION FOR PREVENTING OR TREATING ALZHEIMER'S, CONTAINING SAME” (NEUROBIONET, INC., priority 2020, published 2023):

Columns and labels:
MGO-AGEs = MGO-AGEs (Bos taurus, UniProt P02769); test: Breaking of MGO-induced advanced glycation end products (TNBSA free amine); format: biochemical
Experimental: Bovine serum albumin (BSA) was stored at 37° C. for 7 days in mixture with methylglyoxal (MGO) and sodium azide) to prepare AGEs. The AGEs derived from MGO are referred to as “MGO-AGEs”. MGO-AGEs with a concentration of 1 mg/ml were treated for 24 hours with various concentrations (0.1, 0.2, and 0.4 mM) of SPA1413. As a positive control, aminoguanidine (AG), known as an AGE inhibitor, was used. MGO-AGEs were reacted with 2,4,6-trinitrobenzene sulfonic acid (TNBSA) and 4% sodium bicarbonate, followed by adding 10% sodium dodecyl sulfate and 1 N HCl to terminate the reaction. Absorbance was read at 335 nm accounting for free amines, which resulted from the breaking degradation of AGEs, in a microplate to evaluate the efficacy of degrading AGEs.

LPS-treated BV2 cells = test: Cell viability of LPS-treated BV2 cells; format: cell-based, mouse; details: FIG. 8b
Experimental: Mouse-derived microglia (BV2 cells) purchased from the Korean Cell Line Bank were seeded at a density of 4x10^5 cells/well into 96-well plates, each well containing DMEM (Dulbecco’s Modified Eagle’s Media) supplemented with 10% FBS and 1% antibiotics, and stabilized by incubation for 24 hours. Thereafter, the cells were treated for 24 hours with various concentrations (0.5, 1, and 5 µM) of daidzein, o-desmethylangolensin (O-DMA), S-equal, SPA1413, and SPA1426. After removal of the medium, the cells were treated 0.5 mg/ml 3-(4,5-dimethylthiazol-2-yl)-2,5-diphenyltetrazolium bromide (MTT) solution 1 hour. The reduced formazan was dissolved in 150 µl of dimethyl sulfoxide (DMSO) and absorbance was read at 570 nm in a microspectrophotometer to determine cell viability. Cell viability of the cells treated with each sample was determined relative to that of the untreated normal control (Control), which was set to be 100%, and the results are depicted in FIGS. 3 and 4 (upper).
After stabilization for 24 hours, the cells were treated with various concentrations (1 and 5 µM) of daidzein, o-desmethylangolensin, S-equal, SPA1413, and SPA1426 for 30 minutes and then with LPS (100 ng/ml) for 24 hours at 37° C. […]

iNOS = iNOS protein expression (western blot) in LPS-treated BV2 cells; format: cell-based, mouse; details: 5 µM, LPS (100 ng/ml) 24 hours, FIG. 11b
Experimental: (§1) BV2 cells were aliquoted at a density of 1x10^6 cells/well into 60 mm dishes and stabilized for 24 hours. Thereafter, the cells were treated with 5 µM of S-equal, SPA1413, or SPA1426 for 30 minutes and then with LPS (100 ng/ml) for 24 hours at 37° C. After being cultured to reach 100% confluence, the cells were washed with PBS and lysed with a lysis buffer (PRO-PREP™ Protein Extraction Solution, Intron Biotechnology, Seongnam, Korea). With bovine serum albumin (BSA) serving as a standard, the protein contents of the lysate supernatants were measured by Bio-Rad Protein Assay (Bio-Rad, California, USA) to determine the total protein content in each sample. Afterwards, each of the samples was loaded in a protein amount of 30 µg on a 10-12% SDS-PAGE gel and run for electrophoresis. The electrophorized proteins were transferred to a PVDF membrane which was then blocked with 5% skim milk and incubated with antibodies to COX-2 or iNOS (Cell Signaling Technologies, Massachusetts, USA). Detection was conducted with a ChemiDoc XRS+ imaging system (Bio-Rad, CA, USA).

NGF release in C6 cells = test: Nerve growth factor (NGF) release in C6 cells (ELISA); format: cell-based, rat; details: 5 µM, 24 hours, compared to the normal group, FIG. 13
Experimental: C6 cells were seeded at a density of 4x10^5 cells/well into 96-well plates and stabilized for 24 hours. Thereafter, the cells were treated with 5 µM of daidzein, o-desmethylangolensin, S-equal, SPA1413, or SPA1426 for 24 hours. The culture medium was collected and quantitatively measured for NGF released to the C6 culture supernatant using the enzyme immunoassay method Competitive Enzyme-Linked Immuno Assay (ELISA) kit (R&D systems, Minneapolis, MN, USA). The NGF releases from the groups treated with the samples were evaluated relative to that from the normal group, which was set to be 100%, and the results are depicted in FIG. 13.

p38 = p38 protein expression (western blot) in LPS-treated BV2 cells; format: cell-based, mouse; details: 5 µM, compared to the LPS-treated group, FIG. 12b
Experimental: as §1, with “JNK” for “COX-2”, “p38” for “iNOS”

COX-2 = COX-2 protein expression (western blot) in LPS-treated BV2 cells; format: cell-based, mouse; details: 5 µM, LPS (100 ng/ml) 24 hours, FIG. 11a
Experimental: as §1

Sequence of MGO-AGEs (P02769 25-607): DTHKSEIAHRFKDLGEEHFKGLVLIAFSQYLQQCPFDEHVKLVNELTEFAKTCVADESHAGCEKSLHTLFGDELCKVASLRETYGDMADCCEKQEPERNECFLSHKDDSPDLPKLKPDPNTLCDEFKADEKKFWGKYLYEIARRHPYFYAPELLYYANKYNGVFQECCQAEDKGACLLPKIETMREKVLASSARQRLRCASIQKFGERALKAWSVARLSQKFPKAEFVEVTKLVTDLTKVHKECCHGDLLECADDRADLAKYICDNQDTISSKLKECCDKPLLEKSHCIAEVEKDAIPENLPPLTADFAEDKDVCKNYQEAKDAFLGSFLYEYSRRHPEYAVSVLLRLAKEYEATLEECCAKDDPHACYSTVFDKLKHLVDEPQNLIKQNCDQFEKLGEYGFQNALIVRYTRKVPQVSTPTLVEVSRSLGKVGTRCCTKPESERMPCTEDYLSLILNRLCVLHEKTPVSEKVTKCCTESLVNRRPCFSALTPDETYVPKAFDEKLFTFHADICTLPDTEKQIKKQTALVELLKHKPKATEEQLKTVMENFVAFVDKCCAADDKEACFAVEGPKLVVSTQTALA

free amines from breaking of MGO-AGEs, compared to SPA1413 (MGO-AGEs; FIG. 19) | SMILES | free amines from breaking of MGO-AGEs, compared to the negative control (MGO-AGEs) (MGO-AGEs; 0.1, 0.2 and 0.4 mM, 24 hours, MGO-AGEs 1 mg/ml, FIG. 18) | cell viability compared to the group treated with LPS (LPS-treated BV2 cells) | expression level of iNOS (iNOS) | NGF content (NGF release in C6 cells) | expression level of P38 protein (p38) | expression level of COX-2 (COX-2)
 | Oc1ccc(C2=Cc3ccc(O)cc3OC2)cc1 [SPA1413, 3-(4-Hydroxyphenyl)-2H-chromen-7-ol] | increased levels of free amines | increased | significantly decreased | significantly increased | decreased | significantly decreased
higher levels of free amines | CCCC(=O)Oc1ccc(C2=Cc3ccc(OC(=O)CCC)cc3OC2)cc1 [SPA1426, 4-(7-(butyryloxy)-2H-chromen-3-yl)phenyl butyrate] |  | increased | significantly decreased | significantly increased | decreased | significantly decreased
